Target: T1, MMP-13 (Homo sapiens, UniProt P45452)
T1 construct: catalytic domain (^104Tyr˜^267Gly) was amplified with RT-PCR; His-tag; enterokinase digestion-site; made in house
Test: Assay for inhibitory activities on MMP-13
Assay type: biochemical
Conditions: catalytic domain, substrate MOCAc-Pro-Leu-Gly-Leu-A2Pr(DNP)-Ala-Arg-NH2; read-out: MMP-13 (IC50μM)
Protocol: In regard to MMP-13, mRNA was prepared from carcinoma cell SW1353 derived from human cartilage stimulate by IL-1, TNF and catalytic domain (^[…]) was amplified with RT-PCR. This was cloned in Escherichia. coli expression vector […] inserted with His-tag sequence and enterokinase digestion-site, induced and expressed by IPTG (Isopropyl-β-D-thiogalactopyranoside) and expressed in a insoluble fraction. Isolation of MMP-13 from an insoluble fraction was carried out by dissolving in modifier (6M urea) by a usual method and purification with metal chelate chromatography (Ni […] Sepharose). […] The enzymatic activity on MMP was analyzed by the method described in “C. Graham Knight, Frances Willenbrock and Gillian Murphy: A novel coumarin-labelled peptide for sensitive continuous assays of the matrix metalloproteinases: […] The substrate: MOCAc-[…] was purchased from Peptide Institute, Inc., Osaka, Japan.

`CCC(C)[C@H](NS(=O)(=O)c1ccc(-c2ncc(-c3ccccc3)s2)cc1)C(=O)O` (stereo partly drawn) [Compound A-1] gave an IC50 of 0.012 µM.
`CCC(C)[C@H](NS(=O)(=O)c1ccc(-c2ncc(-c3ccc(OC)cc3)s2)cc1)C(=O)O` (stereo partly drawn) [Compound A-2] gave an IC50 of 0.0013 µM.
`COc1ccc(-c2cnc(-c3ccc(S(=O)(=O)N[C@H](CCSC)C(=O)O)cc3)s2)cc1` [Compound A-3] gave an IC50 of 0.0023 µM.
Work on `COc1ccc(-c2cnc(-c3ccc(S(=O)(=O)N[C@H](CCC(=O)O)C(=O)O)cc3)s2)cc1` [Compound A-4] yielded an IC50 of 0.0024 µM.
Work on `CC(C)[C@H](NS(=O)(=O)c1ccc(-c2ncc(-c3ccc(Br)cc3)s2)cc1)C(=O)O` [Compound A-5] yielded an IC50 of 0.002 µM.
Compound `O=C(O)[C@@H](Cc1ccccc1)NS(=O)(=O)c1ccc(-c2ncc(-c3ccc(Br)cc3)s2)cc1` [Compound A-6] has an IC50 of 0.0029 µM.
In the case of `O=C(O)[C@H](NS(=O)(=O)c1ccc(-c2ncc(-c3ccc(Br)cc3)s2)cc1)c1ccccc1` [Compound A-7], the IC50 is reported as 0.0111 µM.
`CSCC[C@@H](NS(=O)(=O)c1ccc(-c2ncc(-c3ccc(Br)cc3)s2)cc1)C(=O)O` [Compound A-8] gave an IC50 of 0.0038 µM.
With `CC(C)C[C@H](NS(=O)(=O)c1ccc(-c2ncc(-c3ccc(Cl)cc3)s2)cc1)C(=O)O` [Compound A-9] the IC50 was 0.0065 µM.
In the case of `O=C(O)[C@@H](NS(=O)(=O)c1ccc(-c2ncc(-c3ccc(Cl)cc3)s2)cc1)c1ccccc1` [Compound A-10], the IC50 is reported as 0.0246 µM.
`CC(C)C[C@H](NS(=O)(=O)c1ccc(-c2ncc(-c3ccc(F)cc3)s2)cc1)C(=O)O` [Compound A-11] gave an IC50 of 0.0114 µM.
Work on `C[C@@H](NS(=O)(=O)c1ccc(-c2ncc(-c3ccc4ccccc4c3)s2)cc1)C(=O)O` [Compound A-12] yielded an IC50 of 0.012 µM.
`C[C@H](NS(=O)(=O)c1ccc(-c2ncc(-c3ccc4ccccc4c3)s2)cc1)C(=O)O` [Compound A-13] showed an IC50 of 0.019 µM.
`O=C(O)[C@@H](Cc1c[nH]c2ccccc12)NS(=O)(=O)c1ccc(-c2ncc(-c3ccc(F)c(F)c3)s2)cc1` [Compound A-14] showed an IC50 of 0.0061 µM.
Compound `CSCC[C@@H](NS(=O)(=O)c1ccc(-c2ncc(-c3ccc(Cl)c(Cl)c3)s2)cc1)C(=O)O` [Compound A-15] has an IC50 of 0.0135 µM.
With `O=C(O)C[C@@H](NS(=O)(=O)c1ccc(-c2ncc(-c3ccc(Cl)c(Cl)c3)s2)cc1)C(=O)O` [Compound A-16] the IC50 was 0.0154 µM.
In the case of `C[C@@H](NS(=O)(=O)c1ccc(-c2ncc(-c3ccc4c(c3)OCO4)s2)cc1)C(=O)O` [Compound A-17], the IC50 is reported as 0.0065 µM.
With `CC(C)[C@@H](NS(=O)(=O)c1ccc(-c2ncc(-c3ccc4c(c3)OCO4)s2)cc1)C(=O)O` [Compound A-18] the IC50 was 0.0052 µM.
In the case of `CSCC[C@@H](NS(=O)(=O)c1ccc(-c2ncc(-c3ccc4c(c3)OCO4)s2)cc1)C(=O)O` [Compound A-19], the IC50 is reported as 0.0092 µM.
With `O=C(O)C[C@@H](NS(=O)(=O)c1ccc(-c2ncc(-c3ccc4c(c3)OCO4)s2)cc1)C(=O)O` [Compound A-20] the IC50 was 0.0183 µM.
Work on `CC(C)C[C@@H](NS(=O)(=O)c1ccc(-c2ncc(-c3ccc(Cl)c(Cl)c3)s2)cc1)C(=O)O` [Compound A-24] yielded an IC50 of 0.0482 µM.
In the case of `CSc1ccc(-c2cnc(-c3ccc(S(=O)(=O)N[C@@H](C(=O)O)C(C)C)cc3)s2)cc1` [Compound A-25], the IC50 is reported as 0.00033 µM.
Compound `CSc1ccc(-c2cnc(-c3ccc(S(=O)(=O)N[C@H](C(=O)O)C(C)C)cc3)s2)cc1` [Compound A-26] has an IC50 of 0.00045 µM.
`CSc1ccc(-c2cnc(-c3ccc(S(=O)(=O)N[C@@H](C)C(=O)O)cc3)s2)cc1` [Compound A-27] was tested, and the IC50 was 0.001 µM.
Work on `COc1ccc(-c2cnc(-c3ccc(S(=O)(=O)N[C@H](CCC(=O)O)C(=O)O)cc3)o2)cc1` [Compound B-1] yielded an IC50 of 0.0199 µM.
In the case of `C[C@H](NS(=O)(=O)c1ccc(-c2ncc(-c3ccc4ccccc4c3)o2)cc1)C(=O)O` [Compound B-2], the IC50 is reported as 0.763 µM.
In the case of `O=C(O)[C@@H](Cc1ccccc1)NS(=O)(=O)c1ccc(-c2ncc(-c3ccc(Cl)cc3)o2)cc1` [Compound B-3], the IC50 is reported as 0.0443 µM.
`O=C(O)[C@@H](Cc1ccccc1)NS(=O)(=O)c1ccc(-c2ncc(-c3ccc(Cl)c(Cl)c3)o2)cc1` [Compound B-5] gave an IC50 of 0.0169 µM.
`CCc1ccc(-c2nc(-c3ccc(S(=O)(=O)N[C@@H](C(=O)O)C(C)C)cc3)no2)cc1` [Compound C-1] was tested, and the IC50 was 0.01 µM.
In the case of `CCc1ccc(-c2nc(-c3ccc(S(=O)(=O)N[C@H](Cc4ccccc4)C(=O)O)cc3)no2)cc1` [Compound C-2], the IC50 is reported as 0.027 µM.
In the case of `CC(C)c1ccc(-c2nc(-c3ccc(S(=O)(=O)N[C@H](C)C(=O)O)cc3)no2)cc1` [Compound C-3], the IC50 is reported as 0.0113 µM.
Compound `CC(C)c1ccc(-c2nc(-c3ccc(S(=O)(=O)N[C@@H](C(=O)O)C(C)C)cc3)no2)cc1` [Compound C-4] has an IC50 of 0.0057 µM.
`CSCC[C@@H](NS(=O)(=O)c1ccc(-c2noc(-c3ccc(C(C)C)cc3)n2)cc1)C(=O)O` [Compound C-6] showed an IC50 of 0.018 µM.
With `CC(C)c1ccc(-c2nc(-c3ccc(S(=O)(=O)N[C@H](CC(=O)O)C(=O)O)cc3)no2)cc1` [Compound C-7] the IC50 was 0.0196 µM.
For `O=C(O)[C@H](Cc1ccccc1)NS(=O)(=O)c1ccc(-c2noc(-c3ccc4c(c3)OCO4)n2)cc1` [Compound C-8], the IC50 was 0.049 µM.
For `O=C(O)[C@H](Cc1ccccc1)NS(=O)(=O)c1ccc(-c2noc(-c3ccc4cc(Br)ccc4c3)n2)cc1` [Compound C-9], the IC50 was over 10 µM.
`CSc1ccc(-c2nc(-c3ccc(S(=O)(=O)N[C@H](Cc4ccccc4)C(=O)O)cc3)no2)cc1` [Compound C-10] showed an IC50 of 0.0174 µM.
`CCCCc1ccc(-c2noc(-c3ccc(S(=O)(=O)N[C@@H](C(=O)O)C(C)C)cc3)n2)cc1` [Compound D-1] was tested, and the IC50 was 0.028 µM.
With `O=C(O)[C@@H](Cc1ccccc1)NS(=O)(=O)c1ccc(-c2nc(-c3ccc(Cl)cc3)no2)cc1` [Compound D-2] the IC50 was 0.141 µM.
`CCCCc1ccc(-c2noc(-c3ccc(S(=O)(=O)N[C@H](Cc4ccccc4)C(=O)O)cc3)n2)cc1` [Compound D-3] was tested, and the IC50 was 0.1 µM.
`O=C(O)[C@@H](Cc1ccccc1)NS(=O)(=O)c1ccc(-c2nc(-c3ccc(C(F)(F)F)cc3)no2)cc1` [Compound D-4] showed an IC50 of 0.167 µM.
`O=C(O)[C@@H](Cc1ccccc1)NS(=O)(=O)c1ccc(-c2nc(-c3ccc4ccccc4c3)no2)cc1` [Compound D-5] gave an IC50 of 1.01 µM.
Compound `O=C(O)[C@@H](Cc1ccccc1)NS(=O)(=O)c1ccc(-c2nc(-c3ccc(Cl)c(Cl)c3)no2)cc1` [Compound D-6] has an IC50 of 0.764 µM.
For `CC(C)C(NS(=O)(=O)c1ccc(-c2ccccc2)cc1)C(=O)O` (stereo not drawn) [Compound E-1], the IC50 was 0.4 µM.
`Cc1ccc(-c2ccc(S(=O)(=O)N[C@H](Cc3c[nH]c4ccccc34)C(=O)O)cc2)cc1` [Compound E-2] gave an IC50 of 0.00877 µM.
`CC(C)C(NS(=O)(=O)c1ccc(-c2ccc(Cl)cc2)cc1)C(=O)O` (stereo not drawn) [Compound E-3] showed an IC50 of 0.083 µM.
For `CSc1ccc(-c2ccc(S(=O)(=O)NC(C)C(=O)O)cc2)cc1` (stereo not drawn) [Compound E-4], the IC50 was 0.0209 µM.
Work on `CCC(C)C(NS(=O)(=O)c1ccc(-c2ccc(SC)cc2)cc1)C(=O)O` (stereo not drawn) [Compound E-5] yielded an IC50 of 0.0022 µM.
With `CSc1ccc(-c2ccc(S(=O)(=O)NC(Cc3ccccc3)C(=O)O)cc2)cc1` (stereo not drawn) [Compound E-6] the IC50 was 0.0026 µM.
`CSCC[C@@H](NS(=O)(=O)c1ccc(-c2ccc(SC)cc2)cc1)C(=O)O` [Compound E-7] gave an IC50 of 0.0197 µM.
In the case of `CSCC[C@H](NS(=O)(=O)c1ccc(-c2ccc(SC)cc2)cc1)C(=O)O` [Compound E-8], the IC50 is reported as 0.0105 µM.
With `CSc1ccc(-c2ccc(S(=O)(=O)N[C@H](CC(=O)O)C(=O)O)cc2)cc1` [Compound E-9] the IC50 was 0.0132 µM.
`CSc1ccc(-c2ccc(S(=O)(=O)N[C@H](CCC(=O)O)C(=O)O)cc2)cc1` [Compound E-10] showed an IC50 of 0.0236 µM.
`CSc1ccc(-c2ccc(S(=O)(=O)N[C@@H](CCC(=O)O)C(=O)O)cc2)cc1` [Compound E-11] gave an IC50 of 0.0091 µM.
In the case of `CSc1ccc(-c2ccc(S(=O)(=O)N[C@H](CO)C(=O)O)cc2)cc1` [Compound E-12], the IC50 is reported as 0.0165 µM.
`CSc1ccc(-c2ccc(S(=O)(=O)NC(C(=O)O)c3cccs3)cc2)cc1` (stereo not drawn) [Compound E-13] showed an IC50 of 0.0254 µM.
In the case of `CCSc1ccc(-c2ccc(S(=O)(=O)NC(C)C(=O)O)cc2)cc1` (stereo not drawn) [Compound E-14], the IC50 is reported as 0.0135 µM.
In the case of `CCSc1ccc(-c2ccc(S(=O)(=O)NC(C(=O)O)C(C)C)cc2)cc1` (stereo not drawn) [Compound E-15], the IC50 is reported as 0.0195 µM.
In the case of `CCSc1ccc(-c2ccc(S(=O)(=O)NC(Cc3ccccc3)C(=O)O)cc2)cc1` (stereo not drawn) [Compound E-16], the IC50 is reported as 0.0142 µM.
Compound `CCSc1ccc(-c2ccc(S(=O)(=O)NC(C(=O)O)C(C)CC)cc2)cc1` (stereo not drawn) [Compound E-17] has an IC50 of 0.0067 µM.
Work on `CCc1ccc(-c2ccc(S(=O)(=O)NC(C(=O)O)C(C)C)cc2)cc1` (stereo not drawn) [Compound E-18] yielded an IC50 of 0.0204 µM.
`CCOc1ccc(-c2ccc(S(=O)(=O)NC(C(=O)O)C(C)C)cc2)cc1` (stereo not drawn) [Compound E-19] was tested, and the IC50 was 0.0122 µM.
Work on `CC(C)C(NS(=O)(=O)c1ccc(-c2ccc(OC(F)(F)F)cc2)cc1)C(=O)O` (stereo not drawn) [Compound E-20] yielded an IC50 of 0.0141 µM.
In the case of `CSc1ccc(-c2ccc(-c3ccc(S(=O)(=O)N[C@@H](C(=O)O)C(C)C)cc3)cc2)cc1` [Compound E-21], the IC50 is reported as 0.002 µM.
Work on `CC(C)[C@@H](NS(=O)(=O)c1ccc(-c2ccc(-c3ccc4ccccc4c3)cc2)cc1)C(=O)O` [Compound E-22] yielded an IC50 of 0.0139 µM.
`O=C(O)[C@@H](Cc1ccc(-c2ccccc2)cc1)NS(=O)(=O)c1ccc(-c2ccccc2)cc1` [Compound E-23] gave an IC50 of 1.06 µM.
Work on `CC(C)[C@@H](NS(=O)(=O)c1ccc(-c2ccc(-c3ccccc3)cc2)cc1)C(=O)O` [Compound E-24] yielded an IC50 of 0.024 µM.
`CC(C)(C)c1ccc(-c2ccc(S(=O)(=O)NC(Cc3ccccc3)C(=O)O)cc2)cc1` (stereo not drawn) [Compound E-25] showed an IC50 of 0.39 µM.
Compound `O=C(O)C(Cc1ccccc1)NS(=O)(=O)c1ccc(-c2ccc(F)cc2)cc1` (stereo not drawn) [Compound E-26] has an IC50 of 0.21 µM.

Reference: patent publication US20050227994A1, “Decomposition inhibitor for extracellular matrix of cartilage” (Shionogi & Co., Ltd., priority 2002, published 2005)
